Laboratory results reported in the NIST ThermoML archive (doi:10.1016/j.fluid.2005.12.016).

Assay: osmotic coefficient (dimensionless); mn = molality of the nth substance listed, in mol/kg
Details: 298.15 K, 101 kPa, Liquid, isopiestic method

CC(O)C(C)O (stereo not given) [2,3-butanediol] + O
Details | osmotic coefficient
m1 = 0.6071 | 0.9429
m1 = 0.8087 | 0.9359
m1 = 1.995 | 0.913
m1 = 2.96 | 0.9043

OCCCCO [1,4-butanediol] + O
Details | osmotic coefficient
m1 = 0.2252 | 0.977
m1 = 0.778 | 0.9474
m1 = 0.7931 | 0.9467
m1 = 1.054 | 0.9349
m1 = 2.148 | 0.892
m1 = 2.158 | 0.8916
m1 = 3.12 | 0.8619
m1 = 4.499 | 0.8341
m1 = 4.501 | 0.8341

CC(O)CCO (stereo not given) [1,3-butanediol] + O
Details | osmotic coefficient
m1 = 0.2289 | 0.9766
m1 = 0.7849 | 0.9509
m1 = 1.051 | 0.9416
m1 = 2.968 | 0.9042
m1 = 2.969 | 0.9042
m1 = 4.186 | 0.8953
m1 = 4.197 | 0.8953

OCCC(O)CO (stereo not given) [1,2,4-butanetriol] + O
Details | osmotic coefficient
m1 = 0.7526 | 0.9857
m1 = 1.34 | 0.9912
m1 = 1.929 | 0.9968
m1 = 2.745 | 1.0059
m1 = 2.8 | 1.0065
m1 = 3.691 | 1.019
m1 = 5.916 | 1.062

CCC(O)CO (stereo not given) [1,2-butanediol] + O
Details | osmotic coefficient
m1 = 0.2302 | 0.9585
m1 = 0.803 | 0.9286
m1 = 0.8128 | 0.9282
m1 = 1.046 | 0.9205
m1 = 1.056 | 0.9202
m1 = 2.093 | 0.8967
m1 = 3.038 | 0.8831
m1 = 3.044 | 0.8831
m1 = 4.304 | 0.8709

OC[C@@H](O)[C@@H](O)CO [meso-1,2,3,4-butanetetrol] + O
Details | osmotic coefficient
m1 = 0.2173 | 1.0019
m1 = 0.2196 | 1.0019
m1 = 0.5657 | 1.011
m1 = 0.5662 | 1.011
m1 = 0.7365 | 1.014
m1 = 0.74 | 1.014
m1 = 0.9458 | 1.017
m1 = 1.113 | 1.019
m1 = 1.114 | 1.019
